From patent US6228373A, “Peptides with immunomodulatory effects” (priority 1995, dated 2001)
Positions of bridges follow the written chain, without caps; N, C: chain ends. Residues, ends and D or L forms follow the SMILES beside them. Chains are numbered I, II in the order given.

How the values were obtained:
[1] = system: mice (DTH test as per Example 43); assay: DTH test, comparison of different routes of administration; type: in vivo
Experimental: The mice were sensitized, Day 0, by epicutaneous application of 150 μl of an absolute ethanol-acetone (3:1) solution containing 3% OXA on the shaved abdomen. Treatment with peptides 1 to 41 inclusive, or vehicle (phosphate buffer, pH 7.4, containing a mixture of Buffer A and Buffer B in the proportion 63%:37% B (Buffer A: Na2 HPO4, 0.89 g/100 ml, EDTA 0.05 g/100 ml; Buffer B: NaH2 PO4, 0.69 g/100 ml, EDTA 0.05 g/100 ml) was initiated by oral feeding immediately after sensitization and continued once daily (a.m) until Day 6. Seven days after sensitization, both ears of all mice were challenged on both sides by topical application of 20 μl 1% OXA dissolved in peanut oil. Ear thickness was measured prior to and at 24 hours or 48 hours after challenge using an Oditest spring calliper. Challenges and measurements were performed under light pentobarbital anaesthesia.
The intensity of the DTH reactions was measured according to the method described by van Loveren H., et al. (1984) J. Immunol. Methods 67: 311 and expressed according to the formula: Tt24/48 -Tt0 μm units, where t0, t24 and t48 represent the ear thickness at time 0, +24 hrs or +48 hrs after challenge respectively, in individual tests (T). The results are expressed as the mean +/- S.E.M.. The level of significance between means of the groups is obtained by Student's two-tailed t-test. […]
Peptide (Peptide No. 4-derived from SEQ ID NO:24) was administered to mice (groups of 10) orally and by parenteral injection (intravenous and subcutaneous injection) at doses of from 0.0003 μmol/kg body weight through to 3.0 μmol/kg body weight as per example 43. […] The mean and standard error of the mean for each group of mice (10 per group) was recorded.
Peptide (SEQ ID NO:24, dimerized as shown in Box 36 of Table 1) was administered to mice (groups of 10) at doses of 0.03 μmol/kg body weight and 3.0 μmol/kg body weight. […] The mean and standard error of the mean for each group of mice (10 per group) was calculated.

[2] = system: rat spontaneously developed mammary carcinoma cells; assay: Effects of peptides on tumour growth; type: in vivo; details: Wistar rats, subcutaneous mammary carcinoma, gavage once a day, all dose levels tested
Experimental: 10^4 rat spontaneously developed mammary carcinoma cells in isotonic saline and 5% normal syngeneic rat serum were inoculated subcutaneously in the right hindlegs of Wistar rats (8 per group). Tumour size was estimated by palpation and caliper measurements of a first diameter (a), being the largest diameter, and the one (b) perpendicular to the first. The volume of the tumour was calculated using the formula: V=0.4 ab^2.
Tumour volume is given in mm^3 as a median for each group of rats (8 per group).
Drug and control (isotonic saline) were administered by gavage (oesophagealtube) once a day (a.m.) on each of days 4-8 and 11-15 for peptides
i) Gly-Pro-Cys-Cys-Pro-Gly (SEQ ID NO:20; 3 μmol/kg/day); ii) Ala-Pro-Cys-Cys-Val-Pro (SEQ ID NO:21; 0.03 and […]);

[3] = 0.03 and 3.0 μmol/kg body weight

O=C(CNC(=O)[C@@H]1CCCN1)N[C@H]1CSSC[C@@H](C(=O)NCC(=O)N2CCC[C@H]2C(=O)O)NC1=O [Peptide 4] (H-PGCCGP-OH; disulfide 3-4)
immunomodulatory response, oral administration versus other parenteral means ([1]; 0.0003 to 3.0 μmol/kg body weight, oral vs intravenous and subcutaneous injection): more marked immunomodulatory response

CC[C@H](C)[C@H](NC(=O)[C@@H](N)C(C)C)C(=O)N[C@H]1CSSC[C@@H](C(=O)N[C@@H](CC(C)C)C(=O)N[C@H](C(=O)O)[C@@H](C)O)NC1=O [SEQ ID NO:26] (H-VICCLT-OH; disulfide 3-4)
tumour volume compared with the control [2]: marked decrease in tumour volume

NCC(=O)N1CCC[C@H]1C(=O)N[C@@H](CS)C(=O)N[C@@H](CS)C(=O)N1CCC[C@H]1C(=O)NCC(=O)O [Peptide 1, Gly-Pro-Cys-Cys-Pro-Gly] (H-GPCCPG-OH)
tumour volume compared with the control [2]: marked decrease in tumour volume

O=C(CNC(=O)[C@@H]1CCCN1)N[C@H]1CSSC[C@H](NC(=O)CNC(=O)[C@@H]2CCCN2)C(=O)N[C@H](C(=O)NCC(=O)N2CCC[C@H]2C(=O)O)CSSC[C@@H](C(=O)NCC(=O)N2CCC[C@H]2C(=O)O)NC1=O [Peptide 36] (I: H-PGCCGP-OH / II: H-PGCCGP-OH; disulfide I:3-II:3, I:4-II:4)
immunomodulatory effect in the DTH test relative to the control [1, 3]: significant immunomodulatory effect | reaction by oral route relative to parenteral routes at the same dosage [1, 3]: stronger reaction
